Literature values, collected in publication PMC12671102 (Drug Design, Development and Therapy, 2025).

How the values were obtained:
subjects [1] = test system: subjects
subjects [2] = settings: Phase II study
[3] = moderate fat meal

| nephrolithiasis (subjects [2]) | subjects with increases in serum creatinine (subjects [2]) [%] | effect of food on absorption [3] | Structure (SMILES) | subjects with TEAEs (subjects [1]) [%] |
| --- | --- | --- | --- | --- |
|  |  |  | O=C(c1cc(Br)c(O)c(Br)c1)N1CCOc2ccncc21 [URC102] | 41 |
| no nephrolithiasis | 17.1 | delayed absorption | CC(C)(Sc1ccncc1-c1ccc(C#N)c2ccccc12)C(=O)O [verinurad] |  |
